Measured values taken from ChEMBL document CHEMBL4311943, “3-[(1S,2S,3R)-2,3-Difluoro-1-hydroxy-7-methylsulfonylindan-4-yl]oxy-5-fluorobenzonitrile (PT2977), a Hypoxia-Inducible Factor 2α (HIF-2α) Inhibitor for the Treatment of Clear Cell Renal Cell Carcinoma” (J Med Chem, 2019).
The source made the active and inactive calls. The calls are words filed in the database; no cut-off is given here.

What was measured:
[1] = Volume of distribution at steady state in Sprague-Dawley rat at 1 mg/kg, iv by UPLC-MS analysis; format: ADME, organism-based; details: in vivo, read-out: Vdss
[2] = target: CDK2/Cyclin A2 (Homo sapiens) (UniProt P24941+P20248); assay: Activity at human CDK2/cyclinA at 10 uM; format: protein-complex assay
[3] = target: Phosphorylase b kinase gamma catalytic chain, liver/testis isoform (Homo sapiens) (UniProt P15735); assay: Activity at human PhKgamma2 at 10 uM
Sequence of Phosphorylase b kinase gamma catalytic chain, liver/testis isoform (Homo sapiens) (P15735 whole entry, canonical isoform): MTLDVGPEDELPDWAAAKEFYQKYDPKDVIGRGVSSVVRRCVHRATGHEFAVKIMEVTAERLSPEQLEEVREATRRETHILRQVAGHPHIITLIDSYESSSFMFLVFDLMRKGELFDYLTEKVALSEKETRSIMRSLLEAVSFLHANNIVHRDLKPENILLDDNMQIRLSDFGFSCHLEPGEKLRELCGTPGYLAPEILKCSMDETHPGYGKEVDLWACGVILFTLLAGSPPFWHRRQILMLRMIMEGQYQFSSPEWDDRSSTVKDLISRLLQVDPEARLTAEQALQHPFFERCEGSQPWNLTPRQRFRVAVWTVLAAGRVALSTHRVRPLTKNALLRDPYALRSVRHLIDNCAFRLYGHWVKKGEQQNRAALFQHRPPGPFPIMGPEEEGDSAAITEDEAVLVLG

[4] = Protein binding in human plasma at 10 uM measured after 4 hrs by LC-MS/MS analysis; format: ADME, cell-free; details: read-out: PPB (converted)
[5] = target: Calcium/calmodulin-dependent protein kinase type II subunit delta (Homo sapiens) (UniProt Q13557); assay: Activity at human CAMK2D at 10 uM
[6] = Half life in monkey at 1 mg/kg, iv by UPLC-MS analysis; format: ADME, organism-based, Macaca mulatta; details: rhesus monkey, in vivo
[7] = target: Cyclin-dependent kinase 2/cyclin E1 (Homo sapiens) (UniProt P24864+P24941); assay: Activity at human CDK2/cyclinE at 10 uM; format: protein-complex assay
[8] = target: Neuromedin-U receptor 1 (Homo sapiens) (UniProt Q9HB89); assay: Activity at human NMU1 receptor at 10 uM
[9] = target: Vasopressin V2 receptor (Homo sapiens) (UniProt P30518); assay: Activity at human V2 receptor at 10 uM
Sequence of Vasopressin V2 receptor (Homo sapiens) (P30518 whole entry): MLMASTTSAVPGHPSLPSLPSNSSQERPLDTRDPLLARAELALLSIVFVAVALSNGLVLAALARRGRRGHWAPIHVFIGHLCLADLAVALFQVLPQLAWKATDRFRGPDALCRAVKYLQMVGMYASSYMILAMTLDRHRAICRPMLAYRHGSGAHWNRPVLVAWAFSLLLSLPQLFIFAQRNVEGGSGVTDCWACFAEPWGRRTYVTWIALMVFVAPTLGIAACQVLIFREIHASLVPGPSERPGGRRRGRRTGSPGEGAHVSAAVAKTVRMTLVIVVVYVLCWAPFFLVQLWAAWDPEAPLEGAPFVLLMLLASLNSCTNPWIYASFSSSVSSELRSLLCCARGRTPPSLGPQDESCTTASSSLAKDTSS

[10] = target: Sphingosine 1-phosphate receptor 3 (Homo sapiens) (UniProt Q99500); assay: Activity at human S1P3 receptor at 10 uM
[11] = target: Calcium/calmodulin-dependent protein kinase type II subunit beta (Homo sapiens) (UniProt Q13554); assay: Activity at human CAMK2B at 10 uM
Sequence of Calcium/calmodulin-dependent protein kinase type II subunit beta (Homo sapiens) (Q13554 whole entry): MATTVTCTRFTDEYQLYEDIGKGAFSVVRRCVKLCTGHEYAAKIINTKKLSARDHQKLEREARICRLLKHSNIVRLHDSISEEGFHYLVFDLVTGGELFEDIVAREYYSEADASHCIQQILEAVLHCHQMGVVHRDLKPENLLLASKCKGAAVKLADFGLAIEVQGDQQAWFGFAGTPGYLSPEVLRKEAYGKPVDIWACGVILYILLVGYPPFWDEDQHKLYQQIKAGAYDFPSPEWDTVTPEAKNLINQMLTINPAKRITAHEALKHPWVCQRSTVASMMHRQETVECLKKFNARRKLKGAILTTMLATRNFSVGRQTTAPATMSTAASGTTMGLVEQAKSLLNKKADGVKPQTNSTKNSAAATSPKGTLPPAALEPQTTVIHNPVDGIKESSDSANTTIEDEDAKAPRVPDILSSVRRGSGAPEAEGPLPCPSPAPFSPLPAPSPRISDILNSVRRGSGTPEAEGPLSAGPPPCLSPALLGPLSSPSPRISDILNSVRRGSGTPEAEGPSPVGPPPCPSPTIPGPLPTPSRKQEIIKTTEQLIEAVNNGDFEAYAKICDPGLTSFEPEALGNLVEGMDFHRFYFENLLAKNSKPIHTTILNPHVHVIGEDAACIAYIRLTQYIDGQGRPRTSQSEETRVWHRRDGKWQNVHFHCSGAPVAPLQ

[12] = target: Cytochrome P450 1A2 (Homo sapiens, UniProt P05177); assay: Inhibition of CYP1A2 in human liver microsomes up to 50 uM using phenacetin as substrate measured after 10 mins in presence of NADPH by LC-MS/MS analysis; format: ADME
[13] = system: Mus musculus; assay: In vivo inhibition of HIF-2alpha in SCID Beige mouse xenografted with human 786-O cells assessed as reduction in cyclin D1 mRNA expression administered twice daily via oral gavage for 3 days measured 12 hrs post-last dose by qRT-PCR analysis; format: functional, organism-based
[14] = target: 5-hydroxytryptamine receptor 1A (Homo sapiens) (UniProt P08908); assay: Activity at human 5-HT1A receptor at 10 uM
Sequence of 5-hydroxytryptamine receptor 1A (Homo sapiens) (P08908 whole entry): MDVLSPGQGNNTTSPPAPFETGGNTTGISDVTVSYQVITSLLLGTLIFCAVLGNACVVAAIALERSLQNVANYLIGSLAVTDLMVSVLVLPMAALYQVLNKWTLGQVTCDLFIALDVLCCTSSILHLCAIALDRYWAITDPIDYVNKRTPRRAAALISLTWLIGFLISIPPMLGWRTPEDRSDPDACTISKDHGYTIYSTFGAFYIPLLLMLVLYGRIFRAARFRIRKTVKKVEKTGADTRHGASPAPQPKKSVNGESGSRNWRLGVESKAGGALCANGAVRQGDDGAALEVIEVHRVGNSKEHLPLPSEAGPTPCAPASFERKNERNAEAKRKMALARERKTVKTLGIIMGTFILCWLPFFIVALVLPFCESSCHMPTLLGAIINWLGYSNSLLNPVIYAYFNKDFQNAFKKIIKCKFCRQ

[15] = Half life in CD-1 mouse at 3 mg/kg, iv by UPLC-MS analysis; format: ADME, organism-based; details: in vivo
[16] = target: T1, UDP-glucuronosyltransferase 2B17 (Homo sapiens, UniProt O75795); assay: Substrate activity at UGT2B17 in human intestinal microsomes assessed as enzyme-mediated glucuronidation by measuring Vmax per mg protein at 2 to 1000 uM preincubated for 5 mins followed by UDPGA addition and measured after 60 mins by LC-MS/MS analysis; format: ADME, Intestine; details: 1 h
T1 sequence (O75795 whole entry): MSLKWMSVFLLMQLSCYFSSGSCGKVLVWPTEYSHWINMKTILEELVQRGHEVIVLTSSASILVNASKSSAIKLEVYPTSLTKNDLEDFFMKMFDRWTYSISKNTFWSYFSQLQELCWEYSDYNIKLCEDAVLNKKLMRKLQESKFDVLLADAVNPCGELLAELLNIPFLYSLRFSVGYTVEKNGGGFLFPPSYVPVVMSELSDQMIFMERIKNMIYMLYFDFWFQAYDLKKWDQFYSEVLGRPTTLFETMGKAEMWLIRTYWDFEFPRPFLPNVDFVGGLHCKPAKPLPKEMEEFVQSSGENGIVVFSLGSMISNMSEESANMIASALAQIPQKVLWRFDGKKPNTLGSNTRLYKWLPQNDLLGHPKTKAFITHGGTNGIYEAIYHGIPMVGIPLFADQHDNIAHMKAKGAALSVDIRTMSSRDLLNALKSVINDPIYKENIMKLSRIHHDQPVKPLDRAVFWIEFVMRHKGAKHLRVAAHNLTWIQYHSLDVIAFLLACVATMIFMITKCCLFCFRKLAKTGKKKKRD

[17] = target: B2 bradykinin receptor (Homo sapiens) (UniProt P30411); assay: Activity at human bradykinin B2 receptor at 10 uM
[18] = target: cGMP-dependent protein kinase 1 (Homo sapiens) (UniProt Q13976); assay: Activity at human PKG1beta at 10 uM
Sequence of cGMP-dependent protein kinase 1 (Homo sapiens) (Q13976 whole entry): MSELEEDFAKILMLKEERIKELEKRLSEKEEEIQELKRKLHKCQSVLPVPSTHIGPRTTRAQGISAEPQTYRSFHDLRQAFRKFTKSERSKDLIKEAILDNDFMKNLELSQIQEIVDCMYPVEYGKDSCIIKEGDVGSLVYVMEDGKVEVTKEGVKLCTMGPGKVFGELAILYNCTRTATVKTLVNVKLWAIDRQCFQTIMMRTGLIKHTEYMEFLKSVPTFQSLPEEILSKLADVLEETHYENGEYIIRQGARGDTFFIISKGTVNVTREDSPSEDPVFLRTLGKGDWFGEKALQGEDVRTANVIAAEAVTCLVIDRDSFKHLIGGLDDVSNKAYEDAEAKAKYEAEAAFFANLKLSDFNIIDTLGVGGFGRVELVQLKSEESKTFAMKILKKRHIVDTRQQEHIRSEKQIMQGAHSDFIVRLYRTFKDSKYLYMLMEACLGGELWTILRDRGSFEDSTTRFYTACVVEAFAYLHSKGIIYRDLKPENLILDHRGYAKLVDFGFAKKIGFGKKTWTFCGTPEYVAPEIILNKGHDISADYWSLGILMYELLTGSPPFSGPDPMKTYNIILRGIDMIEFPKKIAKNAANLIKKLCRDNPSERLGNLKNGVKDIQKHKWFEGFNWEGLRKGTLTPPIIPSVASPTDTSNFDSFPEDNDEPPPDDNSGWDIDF

[19] = target: Protein kinase C beta type (Homo sapiens) (UniProt P05771); assay: Activity at human PKCbeta1 at 10 uM
Sequence of Protein kinase C beta type (Homo sapiens) (P05771 2-671 limits assumed): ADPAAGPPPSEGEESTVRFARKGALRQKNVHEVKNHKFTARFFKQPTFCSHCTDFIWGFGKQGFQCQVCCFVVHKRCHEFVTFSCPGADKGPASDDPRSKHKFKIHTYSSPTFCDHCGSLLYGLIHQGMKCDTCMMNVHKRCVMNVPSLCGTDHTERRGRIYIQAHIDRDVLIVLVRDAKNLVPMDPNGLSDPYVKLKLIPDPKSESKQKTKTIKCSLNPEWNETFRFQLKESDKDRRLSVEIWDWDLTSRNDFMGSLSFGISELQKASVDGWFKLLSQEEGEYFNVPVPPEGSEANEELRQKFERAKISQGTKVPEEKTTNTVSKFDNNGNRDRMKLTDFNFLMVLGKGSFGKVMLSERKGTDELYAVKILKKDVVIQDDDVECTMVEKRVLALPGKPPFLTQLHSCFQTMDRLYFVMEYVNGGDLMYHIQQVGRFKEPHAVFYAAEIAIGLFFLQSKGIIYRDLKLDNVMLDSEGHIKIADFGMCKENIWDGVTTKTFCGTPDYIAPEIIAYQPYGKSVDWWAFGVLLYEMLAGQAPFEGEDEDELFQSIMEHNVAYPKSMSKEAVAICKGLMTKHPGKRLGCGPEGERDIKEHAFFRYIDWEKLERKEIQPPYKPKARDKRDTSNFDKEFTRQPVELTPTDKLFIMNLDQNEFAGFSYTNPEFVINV

[20] = Clearance in Sprague-Dawley rat at 1 mg/kg, iv by UPLC-MS analysis; format: ADME, organism-based; details: in vivo
[21] = target: Lysophosphatidic acid receptor 3 (Homo sapiens) (UniProt Q9UBY5); assay: Activity at human LPA3 receptor at 10 uM
Sequence of Lysophosphatidic acid receptor 3 (Homo sapiens) (Q9UBY5 whole entry): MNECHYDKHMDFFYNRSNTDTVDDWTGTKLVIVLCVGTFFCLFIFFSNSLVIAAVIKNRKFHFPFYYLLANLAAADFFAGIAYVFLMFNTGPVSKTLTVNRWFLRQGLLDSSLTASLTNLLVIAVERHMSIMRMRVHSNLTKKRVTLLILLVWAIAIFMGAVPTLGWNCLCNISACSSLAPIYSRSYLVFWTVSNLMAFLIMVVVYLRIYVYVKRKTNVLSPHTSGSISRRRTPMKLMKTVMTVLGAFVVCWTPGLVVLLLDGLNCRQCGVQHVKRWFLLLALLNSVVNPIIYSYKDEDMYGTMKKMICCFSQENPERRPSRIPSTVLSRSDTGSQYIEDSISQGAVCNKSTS

[22] = Plasma concentration in patient with advanced solid tumor at 120 mg, po administered once daily measured on day 15 after 24 hrs; format: ADME, organism-based; details: human
[23] = target: Thyrotropin receptor (Homo sapiens) (UniProt P16473); assay: Activity at human TSH at 10 uM
[24] = target: Protein kinase C eta type (Homo sapiens) (UniProt P24723); assay: Activity at human PKCeta at 10 uM
Sequence of Protein kinase C eta type (Homo sapiens) (P24723 whole entry): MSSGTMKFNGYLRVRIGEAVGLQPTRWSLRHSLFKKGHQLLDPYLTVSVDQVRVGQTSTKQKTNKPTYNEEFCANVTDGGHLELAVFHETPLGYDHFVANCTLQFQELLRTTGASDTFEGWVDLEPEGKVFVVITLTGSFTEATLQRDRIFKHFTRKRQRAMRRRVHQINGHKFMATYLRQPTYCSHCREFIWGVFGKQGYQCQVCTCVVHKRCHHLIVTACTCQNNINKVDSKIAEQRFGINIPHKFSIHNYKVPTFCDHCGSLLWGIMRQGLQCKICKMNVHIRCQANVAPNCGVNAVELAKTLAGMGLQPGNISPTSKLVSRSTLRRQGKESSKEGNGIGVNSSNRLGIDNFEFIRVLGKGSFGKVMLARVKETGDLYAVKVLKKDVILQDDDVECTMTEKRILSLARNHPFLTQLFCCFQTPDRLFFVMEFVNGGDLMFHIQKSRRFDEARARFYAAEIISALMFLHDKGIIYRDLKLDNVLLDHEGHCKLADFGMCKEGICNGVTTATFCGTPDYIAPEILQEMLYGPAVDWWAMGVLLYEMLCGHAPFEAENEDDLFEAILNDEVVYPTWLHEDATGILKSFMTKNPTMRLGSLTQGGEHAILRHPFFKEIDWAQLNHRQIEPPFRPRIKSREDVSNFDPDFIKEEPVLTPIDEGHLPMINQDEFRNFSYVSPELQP

[25] = target: C-X-C chemokine receptor type 1 (Homo sapiens) (UniProt P25024); assay: Activity at human CXCR1 receptor at 10 uM
[26] = target: Neurotensin receptor type 1 (Homo sapiens) (UniProt P30989); assay: Activity at human NTR1 receptor at 10 uM
[27] = target: T2, UGT2B17 (Homo sapiens, UniProt O75795); assay: Substrate activity at recombinant human UGT2B17 expressed in baculovirus infected insect cell membranes assessed as enzyme-mediated glucuronidation by measuring Km at 50 uM preincubated for 5 mins followed by UDPGA addition and measured after 60 mins by LC-MS/MS analysis; format: ADME
T2 sequence (O75795 whole entry): T1 sequence (O75795 whole entry)

[28] = target: Cyclin-dependent kinase 5/CDK5 activator 1 (Homo sapiens) (UniProt Q00535+Q15078); assay: Activity at human CDK5/p35 at 10 uM; format: protein-complex assay
[29] = Toxicity in patient with advanced solid tumor assessed as anemia at 20 to 240 mg, po administered once daily; format: organism-based; details: human, in vivo
[30] = Plasma concentration in patient with advanced solid tumor at 80 mg, po administered once daily measured on day 15 after 24 hrs; format: ADME, organism-based; details: human
[31] = target: cGMP-dependent protein kinase 1 (Homo sapiens) (UniProt Q13976); assay: Activity at human PKG1alpha at 10 uM
[32] = Plasma concentration in patient with advanced solid tumor at 40 mg, po administered once daily measured on day 15 after 24 hrs; format: ADME, organism-based; details: human
[33] = target: Histamine H3 receptor (Homo sapiens) (UniProt Q9Y5N1); assay: Activity at human H3 receptor at 10 uM
Sequence of Histamine H3 receptor (Homo sapiens) (Q9Y5N1 whole entry): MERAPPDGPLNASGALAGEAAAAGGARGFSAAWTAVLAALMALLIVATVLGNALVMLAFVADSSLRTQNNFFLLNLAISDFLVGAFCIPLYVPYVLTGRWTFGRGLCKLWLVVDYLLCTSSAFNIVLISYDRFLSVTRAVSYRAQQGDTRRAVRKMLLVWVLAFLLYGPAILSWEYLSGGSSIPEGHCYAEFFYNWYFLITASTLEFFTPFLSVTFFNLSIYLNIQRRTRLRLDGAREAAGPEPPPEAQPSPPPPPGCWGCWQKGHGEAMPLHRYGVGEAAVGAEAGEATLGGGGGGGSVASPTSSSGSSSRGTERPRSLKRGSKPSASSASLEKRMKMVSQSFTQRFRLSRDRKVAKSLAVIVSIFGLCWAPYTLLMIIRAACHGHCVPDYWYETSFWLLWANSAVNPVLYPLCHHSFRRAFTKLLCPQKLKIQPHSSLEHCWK

[34] = target: RAC-beta serine/threonine-protein kinase (Homo sapiens) (UniProt P31751); assay: Activity at human PKBbeta at 10 uM
[35] = target: Receptor-type tyrosine-protein kinase FLT3 (Homo sapiens) (UniProt P36888); assay: Activity at human Flt3 at 10 uM
[36] = Dose normalized AUClast in Sprague-Dawley rat at 10 mg/kg, po administered via gavage by UPLC-MS analysis; format: ADME, organism-based; details: in vivo

## CS(=O)(=O)c1ccc(Oc2cc(F)cc(C#N)c2)c2c1[C@H](O)[C@H](F)[C@@H]2F [BELZUTIFAN]
[1]
  Vd: 1.6 L/kg
[2]
  Activity: inactive
[3]
  Activity: inactive
[4]
  fraction unbound at 4 h, 10 µM: 0.48
[5]
  Activity: inactive
[6]
  half-life: 9.2 h
[7]
  Activity: inactive
[8]
  Activity: inactive
[9]
  Activity: inactive
[10]
  Activity: inactive
[11]
  Activity: inactive
[12]
  inhibition (INH): Not Active
[13]
  inhibition: Dose-dependent effect
[14]
  Activity: inactive
[15]
  half-life: 4 h
[16]
  Vmax: 0.5 pmol/min
[17]
  Activity: inactive
[18]
  Activity: inactive
[19]
  Activity: inactive
[20]
  clearance: 19 mL/min/kg
[21]
  Activity: inactive
[22]
  concentration at 24 h: 710 ng/mL
[23]
  Activity: inactive
[24]
  Activity: inactive
[25]
  Activity: inactive
[26]
  Activity: inactive
[27]
  Km at 1 h, 50 µM: 10 µM
[28]
  Activity: inactive
[29]
  Activity: Non-Toxic
[30]
  concentration at 24 h: 490 ng/mL
[31]
  Activity: inactive
[32]
  concentration at 24 h: 190 ng/mL
[33]
  Activity: inactive
[34]
  Activity: inactive
[35]
  Activity: inactive
[36]
  AUClast/dose: 13 µM·h
